# Test results taken from ChEMBL document CHEMBL5360586, “Purpurascenines A-C, Azepino-Indole Alkaloids from Cortinarius purpurascens: Isolation, Biosynthesis, and Activity Studies on the 5-HT2A Receptor” (J Nat Prod, 2023).
# pEC50, pIC50: −log10 of the molar value. Calls of active or inactive are those of the source. The rule behind the calls is not given here.
# Experiments:
# [1] = test system: PC-3; experiment: Antiproliferative activity against human PC-3 cells assessed as inhibition of cell growth at 100 uM measured after 48 hrs by resazurin staining based analysis; assay type: functional; design: scale not given: the % may be the effect or the level left
# [2] = test system: PC-3; experiment: Antiproliferative activity against human PC-3 cells assessed as inhibition of cell growth measured after 48 hrs by resazurin staining based analysis; assay type: functional; conditions: PC-3, 48 h
# [3] = test system: HCT-116; experiment: Antiproliferative activity against human HCT-116 cells assessed as inhibition of cell growth measured after 48 hrs by resazurin staining based analysis; assay type: functional; conditions: HCT-116, 48 h
# [4] = test system: MCF7; experiment: Antiproliferative activity against human MCF7 cells assessed as inhibition of cell growth measured after 48 hrs by resazurin staining based analysis; assay type: functional; conditions: MCF7, 48 h
# [5] = molecular target: T1, 5-hydroxytryptamine receptor 2A (Homo sapiens, UniProt P28223); experiment: Agonist activity at N-terminal HA-tagged human 5HT2A receptor transfected in CHO-K1 cells co-expressing C-terminal EYFP measured for 5.5 hrs by ONE-Glo reagent based luciferase assay; assay type: functional, cell-based
# T1 sequence (P28223 whole entry): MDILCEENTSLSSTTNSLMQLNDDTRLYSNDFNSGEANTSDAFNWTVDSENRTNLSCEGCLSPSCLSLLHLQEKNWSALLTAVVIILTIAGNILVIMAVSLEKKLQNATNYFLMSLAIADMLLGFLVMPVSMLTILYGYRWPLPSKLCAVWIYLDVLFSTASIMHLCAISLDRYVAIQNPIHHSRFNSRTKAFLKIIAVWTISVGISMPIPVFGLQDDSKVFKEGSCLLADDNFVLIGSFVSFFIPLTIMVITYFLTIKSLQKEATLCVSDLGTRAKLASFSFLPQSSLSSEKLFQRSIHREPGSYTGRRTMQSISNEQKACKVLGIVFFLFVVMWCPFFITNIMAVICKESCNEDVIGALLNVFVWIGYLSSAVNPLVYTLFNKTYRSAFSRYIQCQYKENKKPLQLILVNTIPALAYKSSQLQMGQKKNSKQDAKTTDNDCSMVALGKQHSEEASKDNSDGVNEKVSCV
# [6] = molecular target: T1, 5-hydroxytryptamine receptor 2A; experiment: Agonist activity at N-terminal HA-tagged human 5HT2A receptor transfected in CHO-K1 cells co-expressing C-terminal EYFP measured for 5.5 hrs in presence of serotonin by ONE-Glo reagent based luciferase assay; assay type: functional, cell-based
# [7] = molecular target: T1, 5-hydroxytryptamine receptor 2A; experiment: Agonist activity at N-terminal HA-tagged human 5HT2A receptor transfected in CHO-K1 cells co-expressing C-terminal EYFP assessed as maximal efficacy at 10^-11 M to 10^-5 M measured for 5.5 hrs by ONE-Glo reagent based luciferase assay relative to control; assay type: functional, cell-based
# [8] = molecular target: T1, 5-hydroxytryptamine receptor 2A; experiment: Agonist activity at N-terminal HA-tagged human 5HT2A receptor transfected in CHO-K1 cells co-expressing C-terminal EYFP assessed as maximal efficacy at 10^-4 M measured for 5.5 hrs in presence of serotonin by ONE-Glo reagent based luciferase assay; assay type: functional, cell-based; conditions: filed as agonist, dose 0.0001 M
# [9] = test system: HCT-116; experiment: Antiproliferative activity against human HCT-116 cells assessed as inhibition of cell growth upto 100 uM measured after 48 hrs by resazurin staining based analysis; assay type: functional
# [10] = test system: PC-3; experiment: Antiproliferative activity against human PC-3 cells assessed as inhibition of cell growth upto 100 uM measured after 48 hrs by resazurin staining based analysis; assay type: functional
# [11] = test system: MCF7; experiment: Antiproliferative activity against human MCF7 cells assessed as inhibition of cell growth upto 100 uM measured after 48 hrs by resazurin staining based analysis; assay type: functional
SMILES,Activity [1] [%],pIC50 [2],pIC50 [3],pIC50 [4],pEC50 [5],pEC50 [6],Emax [7] [%],Emax [8] [%],Activity [9],Activity [10],Activity [11]
CC1=N[C@H](C(=O)O)Cc2c[nH]c3c(O)ccc1c23,~30,< 4.00,< 4.00,< 4.00,< 5.00,7.60,22,52,–,–,–
NCCc1c[nH]c2ccc(O)cc12,–,–,–,–,–,–,–,–,inactive,inactive,inactive
